# Assay results: PMC10305039, “Triphenylphosphonium (TPP)-Conjugated Quinolone Analogs Displayed Significantly Enhanced Fungicidal Activity Superior to Its Parent Molecule” (Journal of Fungi, 2023)
# System: T1, cytochrome bc1 complex (complex III) of P. capsici
# T1 construct: gene cob; native complex III in freeze-thawed hyphal mitochondria isolated by differential centrifugation; not purified; with Cytochrome c1, heme protein, mitochondrial; Cytochrome b-c1 complex subunit Rieske, mitochondrial
# Experiment: complex III activity assay kit (Genmed GMS50009), hyphal mitochondria
# Type: biochemical, Phytophthora capsici
# Conditions: freeze-thawed mitochondria; Qi site proposed, not shown
smiles,measurement,value
Cc1cc(=O)c2ccccc2n1OC(=O)CCCCCCCCCC[P+](c1ccccc1)(c1ccccc1)c1ccccc1 [mitoQNO11],IC50,3.33 µM
